Reference: publication PMC11418123, “Structure of a truncated human GlcNAc-1-phosphotransferase variant reveals the basis for its hyperactivity” (The Journal of Biological Chemistry, 2024)

Tests used:
[1] = biological target: T1, S1S3 (Homo sapiens, UniProt Q3T906, H959F); assay: PTase activity assay, UDP-[3H]GlcNAc; format: biochemical; details: H279 = H959 of full-length hPTase
T1 construct: gene GNPTAB; soluble truncation, no TM domains; S1 (233 aa) replaced by 29-aa Dictyostelium discoideum PTase linker; Notch1 to S1P site deleted, GGSGG linker; melittin signal, N-HA, C-HPC4; secreted from T. ni cells; single chain, dimer

[2] = biological target: T2, Dm PTase (Drosophila melanogaster, UniProt A1Z7S7); assay: PTase activity assay, UDP-[3H]GlcNAc; format: biochemical; details: donor, labelled compound; acceptor 100 mM α-MM
T2 construct: gene Gnptab; soluble, without N- and C-terminal TM domains and cytosolic tails; melittin signal, N-HA, C-HPC4; secreted from T. ni cells; single chain; H375 and F378 correspond to human H956 and H959
T2 sequence (A1Z7S7 47-630 limits assumed): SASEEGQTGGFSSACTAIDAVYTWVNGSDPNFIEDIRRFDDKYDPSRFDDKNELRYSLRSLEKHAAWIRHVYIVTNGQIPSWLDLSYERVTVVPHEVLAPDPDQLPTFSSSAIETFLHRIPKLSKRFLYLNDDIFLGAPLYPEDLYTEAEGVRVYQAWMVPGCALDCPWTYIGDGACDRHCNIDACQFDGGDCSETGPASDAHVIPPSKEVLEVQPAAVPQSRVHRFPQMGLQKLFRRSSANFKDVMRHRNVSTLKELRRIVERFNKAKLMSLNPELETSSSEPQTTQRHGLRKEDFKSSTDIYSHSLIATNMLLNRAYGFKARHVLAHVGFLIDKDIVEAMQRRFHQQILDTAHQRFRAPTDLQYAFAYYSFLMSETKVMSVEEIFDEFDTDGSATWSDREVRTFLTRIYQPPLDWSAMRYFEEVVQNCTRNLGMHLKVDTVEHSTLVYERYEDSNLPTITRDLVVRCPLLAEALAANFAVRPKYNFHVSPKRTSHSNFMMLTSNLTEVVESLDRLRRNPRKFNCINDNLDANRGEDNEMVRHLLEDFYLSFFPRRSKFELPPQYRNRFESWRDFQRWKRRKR

[3] = biological target: T3, hPTase-αβ (soluble full-length human GlcNAc-1-phosphotransferase) (Homo sapiens, UniProt Q3T906); assay: cryo-EM structure, […] Å; format: binding; details: 10 mM UDP-GlcNAc, 10 mM MnCl2, 6 h at 4 °C; donor site in the catalytic pocket with two Mn2+
T3 construct: gene GNPTAB; soluble secreted form of the alpha/beta precursor, cut by site-1 protease at K928/D929; no gamma subunit; dimer
T3 sequence (Q3T906 44-928 limits assumed): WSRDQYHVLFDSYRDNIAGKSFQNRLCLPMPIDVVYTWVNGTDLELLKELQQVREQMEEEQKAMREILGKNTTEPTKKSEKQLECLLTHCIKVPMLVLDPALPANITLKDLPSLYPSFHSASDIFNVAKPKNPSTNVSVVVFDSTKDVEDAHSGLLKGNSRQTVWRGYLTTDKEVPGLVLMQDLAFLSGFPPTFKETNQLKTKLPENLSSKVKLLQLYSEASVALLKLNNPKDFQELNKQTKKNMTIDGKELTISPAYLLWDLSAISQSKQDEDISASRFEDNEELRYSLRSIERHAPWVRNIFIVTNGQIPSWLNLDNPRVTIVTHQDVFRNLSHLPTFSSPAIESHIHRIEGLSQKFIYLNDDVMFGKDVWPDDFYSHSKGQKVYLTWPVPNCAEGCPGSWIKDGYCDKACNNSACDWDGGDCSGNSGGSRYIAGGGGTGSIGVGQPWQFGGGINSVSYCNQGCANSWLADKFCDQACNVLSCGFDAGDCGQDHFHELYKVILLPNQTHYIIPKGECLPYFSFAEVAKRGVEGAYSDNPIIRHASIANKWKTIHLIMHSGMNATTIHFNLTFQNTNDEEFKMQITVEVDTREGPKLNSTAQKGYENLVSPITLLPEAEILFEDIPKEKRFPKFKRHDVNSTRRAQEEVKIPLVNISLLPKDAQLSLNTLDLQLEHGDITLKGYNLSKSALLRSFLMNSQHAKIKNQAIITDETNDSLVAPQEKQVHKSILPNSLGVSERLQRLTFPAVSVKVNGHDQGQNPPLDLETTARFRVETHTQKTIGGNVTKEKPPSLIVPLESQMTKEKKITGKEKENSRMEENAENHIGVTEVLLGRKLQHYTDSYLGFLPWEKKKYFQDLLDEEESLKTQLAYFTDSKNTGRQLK
T3 sequence (Q3T906 929-1214 limits assumed): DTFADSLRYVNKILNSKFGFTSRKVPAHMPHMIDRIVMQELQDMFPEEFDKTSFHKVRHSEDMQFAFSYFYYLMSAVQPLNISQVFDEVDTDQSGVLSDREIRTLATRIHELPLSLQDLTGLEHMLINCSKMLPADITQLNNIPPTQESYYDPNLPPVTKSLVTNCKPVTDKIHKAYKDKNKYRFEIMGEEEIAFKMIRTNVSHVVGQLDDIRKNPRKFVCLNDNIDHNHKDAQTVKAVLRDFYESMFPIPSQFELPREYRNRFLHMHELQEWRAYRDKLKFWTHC

[4] = biological target: T4, S1S3 (Homo sapiens, UniProt Q3T906); assay: UDP-[3H]GlcNAc radiolabel transfer assay, QAE-Sephadex; format: biochemical; details: saturating UDP-[3H]GlcNAc; Mn2+ and Mg2+, pH 7.4, 37 °C (general assay); mean of two assays
T4 construct: gene GNPTAB; soluble truncation, no TM domains; S1 (233 aa) replaced by 29-aa Dictyostelium discoideum PTase linker; Notch1 to S1P site deleted, GGSGG linker; melittin signal, N-HA, C-HPC4; secreted from T. ni cells; single chain, dimer

[5] = biological target: soluble S1S3, truncated hyperactive variant of human GlcNAc-1-phosphotransferase (PTase) αβ lacking both transmembrane domains and cytosolic tails (human | Dictyostelium discoideum); assay: cryo-EM structure; single-particle cryo-EM of purified soluble S1S3 at 0.8 mg/ml; 3.4 Å
[6] = substrate: CO[C@H]1O[C@H](CO)[C@@H](O)[C@H](O)[C@@H]1O; assay: UDP-[3H]GlcNAc radiolabel transfer assay, QAE-Sephadex; format: biochemical, Homo sapiens; details: saturating UDP-[3H]GlcNAc, Mn2+ and Mg2+, pH 7.4, 37 °C (general assay), mean of two assays

T1 sequence (Q3T906 929-1214 H959F limits assumed, one chain of several): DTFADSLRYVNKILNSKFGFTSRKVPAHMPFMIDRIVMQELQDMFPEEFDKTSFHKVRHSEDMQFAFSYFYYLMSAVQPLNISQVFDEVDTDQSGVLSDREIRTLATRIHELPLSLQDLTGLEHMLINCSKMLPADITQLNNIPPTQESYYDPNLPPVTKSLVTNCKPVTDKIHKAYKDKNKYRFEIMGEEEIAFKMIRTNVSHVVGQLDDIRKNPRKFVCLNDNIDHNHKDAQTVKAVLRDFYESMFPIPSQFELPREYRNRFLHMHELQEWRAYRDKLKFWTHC

For `CC(=O)N[C@H]1[C@H](O[C@H]2[C@H](O)[C@@H](NC(C)=O)C(O)O[C@@H]2CO)O[C@H](CO)[C@@H](O[C@@H]2O[C@H](CO[C@H]3O[C@H](CO[C@H]4O[C@H](CO)[C@@H](O)[C@H](O)[C@@H]4O[C@H]4O[C@H](CO)[C@@H](O)[C@H](O)[C@@H]4O)[C@@H](O)[C@H](O[C@H]4O[C@H](CO)[C@@H](O)[C@H](O)[C@@H]4O[C@H]4O[C@H](CO)[C@@H](O)[C@H](O)[C@@H]4O)[C@@H]3O)[C@@H](O)[C@H](O[C@H]3O[C@H](CO)[C@@H](O)[C@H](O)[C@@H]3O[C@H]3O[C@H](CO)[C@@H](O)[C@H](O)[C@@H]3O[C@H]3O[C@H](CO)[C@@H](O)[C@H](O)[C@@H]3O)[C@@H]2O)[C@@H]1O` (some centres unmarked) [Man-9, Man9GlcNAc2], the “PTase activity assay, UDP-[3H]GlcNAc” value ([1]; 0.34 mM Man-9) was “The His-279-Phe mutation caused a significant decrease in activity toward the three acceptors”.

With `CC(=O)N[C@H]1[C@@H](OP(=O)(O)OP(=O)(O)OC[C@H]2O[C@@H](n3ccc(=O)[nH]c3=O)[C@H](O)[C@@H]2O)O[C@H](CO)[C@@H](O)[C@@H]1O` [UDP-GlcNAc] the “PTase activity assay, UDP-[3H]GlcNAc” value [2] was “Dm PTase is capable of using UDP-GlcNAc as a nucleotide sugar donor” and the “cryo-EM structure, 2.9 Å” value [3] was “we resolved the cryo-EM structure of hPTase in the presence of the nucleotide donor sugar”.

In the case of `OC[C@H]1O[C@H](O[C@@H]2C(O)O[C@H](CO)[C@@H](O)[C@@H]2O)[C@@H](O)[C@@H](O)[C@@H]1O` (stereo partly drawn) [mannobiose, 2-α-mannobiose], the Km [4] is reported as 53.6 mM.

`CO[C@H]1O[C@H](CO)[C@@H](O)[C@H](O)[C@@H]1O` [α-MM, methyl α-D-mannopyranoside] was tested, and the “PTase activity assay, UDP-[3H]GlcNAc” value ([1]; 100 mM α-MM) was “The His-279-Phe mutation caused a significant decrease in activity toward the three acceptors”.

“soluble S1S3, truncated hyperactive variant of human GlcNAc-1-phosphotransferase (PTase) αβ lacking both transmembrane domains and cytosolic tails (enzyme)” gave a stoichiometry N [5] of 2.

B1: hPTase-αβ (soluble full-length human GlcNAc-1-phosphotransferase) (Homo sapiens) (protein)
chain 1: WSRDQYHVLFDSYRDNIAGKSFQNRLCLPMPIDVVYTWVNGTDLELLKELQQVREQMEEEQKAMREILGKNTTEPTKKSEKQLECLLTHCIKVPMLVLDPALPANITLKDLPSLYPSFHSASDIFNVAKPKNPSTNVSVVVFDSTKDVEDAHSGLLKGNSRQTVWRGYLTTDKEVPGLVLMQDLAFLSGFPPTFKETNQLKTKLPENLSSKVKLLQLYSEASVALLKLNNPKDFQELNKQTKKNMTIDGKELTISPAYLLWDLSAISQSKQDEDISASRFEDNEELRYSLRSIERHAPWVRNIFIVTNGQIPSWLNLDNPRVTIVTHQDVFRNLSHLPTFSSPAIESHIHRIEGLSQKFIYLNDDVMFGKDVWPDDFYSHSKGQKVYLTWPVPNCAEGCPGSWIKDGYCDKACNNSACDWDGGDCSGNSGGSRYIAGGGGTGSIGVGQPWQFGGGINSVSYCNQGCANSWLADKFCDQACNVLSCGFDAGDCGQDHFHELYKVILLPNQTHYIIPKGECLPYFSFAEVAKRGVEGAYSDNPIIRHASIANKWKTIHLIMHSGMNATTIHFNLTFQNTNDEEFKMQITVEVDTREGPKLNSTAQKGYENLVSPITLLPEAEILFEDIPKEKRFPKFKRHDVNSTRRAQEEVKIPLVNISLLPKDAQLSLNTLDLQLEHGDITLKGYNLSKSALLRSFLMNSQHAKIKNQAIITDETNDSLVAPQEKQVHKSILPNSLGVSERLQRLTFPAVSVKVNGHDQGQNPPLDLETTARFRVETHTQKTIGGNVTKEKPPSLIVPLESQMTKEKKITGKEKENSRMEENAENHIGVTEVLLGRKLQHYTDSYLGFLPWEKKKYFQDLLDEEESLKTQLAYFTDSKNTGRQLK
chain 2: DTFADSLRYVNKILNSKFGFTSRKVPAHMPHMIDRIVMQELQDMFPEEFDKTSFHKVRHSEDMQFAFSYFYYLMSAVQPLNISQVFDEVDTDQSGVLSDREIRTLATRIHELPLSLQDLTGLEHMLINCSKMLPADITQLNNIPPTQESYYDPNLPPVTKSLVTNCKPVTDKIHKAYKDKNKYRFEIMGEEEIAFKMIRTNVSHVVGQLDDIRKNPRKFVCLNDNIDHNHKDAQTVKAVLRDFYESMFPIPSQFELPREYRNRFLHMHELQEWRAYRDKLKFWTHC
notes: soluble secreted form of the alpha/beta precursor, cut by site-1 protease at K928/D929; no gamma subunit; dimer
In the case of B1, the Km [6] is reported as 57,100 μM and the kcat [6] is reported as 0.153 s⁻¹.
